In US20180318287A1, “Imidazo[4,5-c]quinolin-2-one Compounds and Their Use in Treating Cancer” (ASTRAZENECA AB, priority 2015, published 2018):

Tests used:
Format in all cases: cell-based
ATM kinase = molecular target: T1, ATM kinase (Homo sapiens, UniProt Q13315); assay: Assay a): ATM cellular potency (pATM Ser1981 in irradiated HT29 cells); details: HT29 cells, X-ray irradiation, pATM Ser1981; Table 2; read-out: Assay a) ATM Cell IC50
T1 construct: endogenous in cells; host or cells: HT29 cells (ECACC #85061109)
Procedure: Most ATM molecules in the cell are rapidly phosphorylated on this site after doses of radiation as low as 0.5 Gy, and binding of a phosphospecific antibody is detectable after the introduction of only a few DNA double-strand breaks in the cell.
The rationale of the p ATM assay is to identify inhibitors of ATM in cells. HT29 cells are incubated with test compounds for 1 hr prior to X-ray-irradiation. 1 h later the cells are fixed and stained for p ATM (Ser1981). The fluorescence is read on the arrayscan imaging platform.
The following morning compounds of Formula (I) in 100% DMSO were added to assay plates by acoustic dispensing. After 1 h incubation at 37° C. and 5% CO2, plates (up to 6 at a time) were irradiated using the X-RAD 320 instrument (PXi) with equivalent to ˜600cGy. Plates were returned to the incubator for a further 1 h. […] Then 20 μl of 0.1% Triton X100 in PBS was added and incubated for 20 minutes at r.t., to permeabalise cells. Then the plates were washed once with […] PBS, using a Biotek EL405 plate washer.
After 1 h incubation at r.t., the plates were washed three times with 50 μl/well PBS, using a Biotek EL405 plate washer, and plates were sealed and kept in PBS at 4° C. until read. Plates were read using an ArrayScan VTI instrument, using an XF53 filter with 10× objective.

ATR kinase = molecular target: T2, ATR kinase (Homo sapiens, UniProt Q13535); assay: Assay b): ATR cellular potency (pChk1 Ser345 in HT29 cells after 4NQO); details: HT29 cells, 4NQO, pChk1 Ser345; Table 2; read-out: Assay b) ATR Cell IC50
T2 construct: endogenous in cells; host or cells: HT29 cells (ECACC #85061109)
Procedure: ATR is a PI 3-kinase-related kinase which phosphorylates multiple substrates on serine or threonine residues in response to DNA damage during or replication blocks. Chk1, a downstream protein kinase of ATR, plays a key role in DNA damage checkpoint control. Activation of Chk1 involves phosphorylation of Ser317 and Ser345 (the latter regarded as the preferential target for phosphorylation/activation by ATR).
The following morning compound of Formula (I) in 100% DMSO were added to assay plates by acoustic dispensing. After 1 h incubation at 37° C. and 5% CO2, 40 nl of 3 mM 4NQO in 100% DMSO was added to all wells by acoustic dispensing, except minimum control wells which were left untreated with 4NQO to generate a null response control. Plates were returned to the incubator for a further 1 h. […] Then 20 μl of 0.1% Triton X100 in PBS was added and incubated for 10 minutes at r.t., to permeabalise cells. Then the plates were washed once with 50 μl/well PBS, using a Biotek EL405 plate washer.
After 2 h incubation at r.t., the plates were washed three times with 50 μl/well PBS, using a Biotek EL405 plate washer, and plates were then sealed with black plate seals until read. Plates were read using an ArrayScan VTI instrument, using an XF53 filter with 10× objective.

mTOR = molecular target: T3, mTOR (Homo sapiens, UniProt P42345); assay: Assay d): mTOR cellular potency (phospho-AKT Ser473 in MDA-MB-468 cells); details: MDA-MB-468 cells, phospho-AKT Ser473, 2 h; Table 2; read-out: Assay d) mTOR Cell IC50
T3 construct: phosphorylation of the Akt protein at Ser473 (AKT lies downstream of PI3Kα in the signal transduction pathway) in the MDA-MB-468 cells; endogenous in cells; host or cells: MDA-MB-468 cells (ATCC HTB 132)
Procedure: This assay was used to measure mTOR inhibition in cells. The aim of the phospho-AKT cell based mechanism of action assay using the Acumen Explorer is to identify inhibitors of either PI3Kα or mTOR-Rictor (Rapamycin insensitive companion of mTOR). This is measured by any decrease in the phosphorylation of the Akt protein at Ser473 (AKT lies downstream of PI3Kα in the signal transduction pathway) in the MDA-MB-468 cells following treatment with compound.
MDA-MB-468 cells (human breast adenocarcinoma #ATCC HTB 132) were seeded at 1500 cells/well in 40 μl of DMEM containing 10% FBS and 1% glutamine into Greiner 384 well black flat-bottomed plates. Cell plates were incubated for 18 h in a 37° C. incubator before dosing with compounds of Formula (I) in 100% DMSO using acoustic dispensing. Compounds were dosed in a 12 point concentration range into a randomised plate map. Control wells were generated either by dosing of 100% DMSO (max signal) or addition of a reference compound (a PI3K-βinhibitor) that completely eliminated the pAKT signal (min control). Plates were incubated at 37° C. for 2 h; cells were then fixed by the addition of 10 μl of a 3.7% formaldehyde solution. After 30 minutes the plates were washed with PBS using a Tecan PW384 plate washer. Wells were blocked and cells permeabilised with the addition of 40 μl of PBS containing 0.5% Tween20 and 1% Marvel™ (dried milk powder) and incubated for 60 minutes at r.t. The plates were washed with PBS containing 0.5% (v/v) Tween20 and 20 μl rabbit anti-phospho AKT Ser473 (Cell Signalling Technologies, #3787) in same PBS-Tween+1% Marvel™ was added and incubated overnight at 4° C.
Plates were washed 3 times with PBS+0.05% Tween 20 using a Tecan PW384. 20 μl of secondary antibody Alexa Fluor 488 anti-Rabbit (Molecular Probes, #A11008) diluted in PBS+0.05% Tween20 containing 1% Marvel™ was added to each well and incubated for 1 h at r.t. Plates were washed three times as before then 20 μl PBS added to each well and plates sealed with a black plate sealer.
The plates were read on an Acumen plate reader as soon as possible, measuring green fluorescence after excitation with 488 nm laser. Using this system IC50 values were generated and quality of plates was determined by control wells. Reference compounds were run each time to monitor assay performance.

T2 sequence (Q13535 whole entry): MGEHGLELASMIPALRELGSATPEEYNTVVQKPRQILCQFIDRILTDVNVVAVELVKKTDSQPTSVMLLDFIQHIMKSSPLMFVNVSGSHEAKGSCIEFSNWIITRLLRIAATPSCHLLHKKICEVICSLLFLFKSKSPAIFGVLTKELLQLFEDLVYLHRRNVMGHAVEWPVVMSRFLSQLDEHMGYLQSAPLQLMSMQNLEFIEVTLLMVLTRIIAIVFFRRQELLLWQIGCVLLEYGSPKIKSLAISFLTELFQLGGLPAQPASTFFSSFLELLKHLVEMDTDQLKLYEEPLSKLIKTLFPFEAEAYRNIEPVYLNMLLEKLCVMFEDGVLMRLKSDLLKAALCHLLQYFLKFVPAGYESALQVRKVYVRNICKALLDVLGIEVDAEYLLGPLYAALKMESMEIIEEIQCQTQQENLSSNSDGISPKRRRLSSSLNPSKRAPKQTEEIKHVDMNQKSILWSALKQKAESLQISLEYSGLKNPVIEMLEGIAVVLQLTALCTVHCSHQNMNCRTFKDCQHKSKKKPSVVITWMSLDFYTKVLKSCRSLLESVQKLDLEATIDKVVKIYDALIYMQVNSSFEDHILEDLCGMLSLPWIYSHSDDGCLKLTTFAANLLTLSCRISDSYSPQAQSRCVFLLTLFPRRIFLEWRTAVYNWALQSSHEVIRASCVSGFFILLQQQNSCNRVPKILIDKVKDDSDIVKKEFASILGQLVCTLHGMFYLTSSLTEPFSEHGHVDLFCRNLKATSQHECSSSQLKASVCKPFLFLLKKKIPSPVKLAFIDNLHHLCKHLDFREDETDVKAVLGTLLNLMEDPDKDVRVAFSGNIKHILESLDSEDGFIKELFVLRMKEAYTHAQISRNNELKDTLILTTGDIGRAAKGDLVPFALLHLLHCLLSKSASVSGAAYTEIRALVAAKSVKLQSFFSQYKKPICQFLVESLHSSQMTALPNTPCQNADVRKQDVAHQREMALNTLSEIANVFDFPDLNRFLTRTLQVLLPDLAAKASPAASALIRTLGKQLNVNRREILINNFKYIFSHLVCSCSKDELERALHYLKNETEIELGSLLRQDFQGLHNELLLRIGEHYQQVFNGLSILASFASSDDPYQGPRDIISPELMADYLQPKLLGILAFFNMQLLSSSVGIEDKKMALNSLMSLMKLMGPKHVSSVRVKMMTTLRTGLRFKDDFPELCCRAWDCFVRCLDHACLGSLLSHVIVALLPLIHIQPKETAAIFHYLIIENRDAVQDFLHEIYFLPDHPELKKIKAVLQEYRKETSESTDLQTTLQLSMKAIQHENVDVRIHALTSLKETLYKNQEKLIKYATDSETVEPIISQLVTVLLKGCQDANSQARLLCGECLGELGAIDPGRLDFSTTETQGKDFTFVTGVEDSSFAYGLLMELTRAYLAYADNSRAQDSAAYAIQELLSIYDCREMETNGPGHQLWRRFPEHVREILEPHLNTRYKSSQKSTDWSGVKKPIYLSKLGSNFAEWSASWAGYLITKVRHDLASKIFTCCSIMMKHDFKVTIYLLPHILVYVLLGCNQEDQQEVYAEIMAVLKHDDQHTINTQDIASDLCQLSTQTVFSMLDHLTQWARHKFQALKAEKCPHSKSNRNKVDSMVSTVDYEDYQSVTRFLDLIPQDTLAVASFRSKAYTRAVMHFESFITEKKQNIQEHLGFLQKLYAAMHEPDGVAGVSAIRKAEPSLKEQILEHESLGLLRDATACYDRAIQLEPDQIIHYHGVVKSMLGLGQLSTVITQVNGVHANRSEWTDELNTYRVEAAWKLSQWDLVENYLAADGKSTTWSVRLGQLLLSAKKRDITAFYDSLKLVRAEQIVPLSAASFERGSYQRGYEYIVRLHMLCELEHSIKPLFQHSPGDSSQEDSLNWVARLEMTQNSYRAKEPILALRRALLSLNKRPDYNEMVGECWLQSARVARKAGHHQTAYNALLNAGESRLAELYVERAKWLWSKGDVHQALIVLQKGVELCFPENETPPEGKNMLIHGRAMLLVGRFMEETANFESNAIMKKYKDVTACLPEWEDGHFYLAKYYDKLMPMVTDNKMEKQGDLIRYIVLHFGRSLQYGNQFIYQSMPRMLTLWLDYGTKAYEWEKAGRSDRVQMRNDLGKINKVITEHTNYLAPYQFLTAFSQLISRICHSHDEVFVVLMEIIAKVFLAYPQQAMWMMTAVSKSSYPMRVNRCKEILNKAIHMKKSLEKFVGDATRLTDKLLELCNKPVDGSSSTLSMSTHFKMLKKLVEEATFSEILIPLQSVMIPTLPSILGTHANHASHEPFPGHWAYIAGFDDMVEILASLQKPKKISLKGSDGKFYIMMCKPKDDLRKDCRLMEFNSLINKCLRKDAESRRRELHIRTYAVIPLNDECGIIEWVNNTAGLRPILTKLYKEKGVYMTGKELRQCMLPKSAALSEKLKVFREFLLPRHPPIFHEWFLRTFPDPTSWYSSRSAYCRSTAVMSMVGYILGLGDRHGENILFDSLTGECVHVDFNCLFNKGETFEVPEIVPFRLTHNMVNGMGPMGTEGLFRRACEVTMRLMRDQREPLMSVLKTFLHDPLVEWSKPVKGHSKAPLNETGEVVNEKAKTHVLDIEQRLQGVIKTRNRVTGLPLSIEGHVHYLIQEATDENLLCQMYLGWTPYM
T2 sequence (Q8WXE1 whole entry partner): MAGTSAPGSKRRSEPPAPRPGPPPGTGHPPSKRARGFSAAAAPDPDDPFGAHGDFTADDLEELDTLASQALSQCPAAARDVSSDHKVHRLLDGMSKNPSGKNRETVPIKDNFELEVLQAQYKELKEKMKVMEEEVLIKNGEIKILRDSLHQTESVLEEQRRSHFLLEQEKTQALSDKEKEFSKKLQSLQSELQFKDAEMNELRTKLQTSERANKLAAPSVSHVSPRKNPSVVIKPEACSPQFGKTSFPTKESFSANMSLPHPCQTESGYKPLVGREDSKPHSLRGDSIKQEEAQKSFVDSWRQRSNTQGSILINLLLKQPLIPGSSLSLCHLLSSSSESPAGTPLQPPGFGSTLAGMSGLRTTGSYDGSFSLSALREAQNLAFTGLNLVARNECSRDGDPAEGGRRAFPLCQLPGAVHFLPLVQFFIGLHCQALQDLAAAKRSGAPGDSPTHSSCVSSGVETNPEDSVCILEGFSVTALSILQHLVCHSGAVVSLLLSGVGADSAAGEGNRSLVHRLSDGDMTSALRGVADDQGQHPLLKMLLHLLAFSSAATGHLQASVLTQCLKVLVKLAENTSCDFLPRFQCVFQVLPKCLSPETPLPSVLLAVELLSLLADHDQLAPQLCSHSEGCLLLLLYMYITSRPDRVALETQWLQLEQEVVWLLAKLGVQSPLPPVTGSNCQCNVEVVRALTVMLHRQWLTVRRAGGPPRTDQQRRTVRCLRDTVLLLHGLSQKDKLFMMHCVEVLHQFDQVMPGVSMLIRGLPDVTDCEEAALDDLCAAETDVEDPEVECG

SMILES	IC50 (ATM kinase) [nM]	IC50 (ATR kinase) [nM]	IC50 (mTOR) [nM]
CO[C@H]1C[C@H](n2c(=O)n(C)c3cnc4ccc(-c5ccc(OCCCN6CCCC6)cc5)cc4c32)C1 [Example 42, 1-(trans-3-methoxycyclobutyl)-3-methyl-8-[4-(3-pyrrolidin-1-ylpropoxy)phenyl]imidazo[4,5-c]quinolin-2-one]	0.689	> 30000	2170
CO[C@H]1C[C@@H](n2c(=O)n(C)c3cnc4ccc(-c5ccc(OCCCN6CCCCC6)cc5)cc4c32)C1 [Example 43, 1-(cis-3-methoxycyclobutyl)-3-methyl-8-[4-[3-(1-piperidyl)propoxy]phenyl]imidazo[4,5-c]quinolin-2-one]	0.254	> 30000	3630
CN(C)CCCOc1ccc(-c2ccc3ncc4c(c3c2)n(C2CCOCC2)c(=O)n4C)cc1 [Example 44, 8-[4-[3-(dimethylamino)propoxy]phenyl]-3-methyl-1-tetrahydropyran-4-yl-imidazo[4,5-c]quinolin-2-one]	0.364	> 21700	6990
CN(C)CCOc1ccc(-c2ccc3ncc4c(c3c2)n([C@@H]2CCCOC2)c(=O)n4C)cc1 [Example 48, 8-[4-[2-(dimethylamino)ethoxy]phenyl]-3-methyl-1-[(3R)-tetrahydropyran-3-yl]imidazo[4,5-c]quinolin-2-one]	24.7	> 26800	1780
CO[C@H]1CC[C@H](n2c(=O)n(C)c3cnc4ccc(-c5ccc(OCCN(C)C)cc5)cc4c32)C1 [Example 52, 8-[4-[2-(dimethylamino)ethoxy]phenyl]-1-[(1S,3S)-3-methoxycyclopentyl]-3-methyl-imidazo[4,5-c]quinolin-2-one]	3.57	21900	5630
CN(C)CCOc1ccc(-c2ccc3ncc4c(c3c2)n(C2CCOCC2)c(=O)n4C)cc1 [Example 54, 8-[4-[2-(dimethylamino)ethoxy]phenyl]-3-methyl-1-tetrahydropyran-4-yl-imidazo[4,5-c]quinolin-2-one]	11.1	> 24700	7730
CO[C@H]1C[C@@H](n2c(=O)n(C)c3cnc4ccc(-c5ccc(OCCN(C)C)cc5)cc4c32)C1 [Example 55, 8-[4-[2-(dimethylamino)ethoxy]phenyl]-1-(3-(cis)methoxycyclobutyl)-3-methyl-imidazo[4,5-c]quinolin-2-one]	11.3	> 30000	4440
CN(C)CCOc1ccc(-c2cc3c(cc2F)ncc2c3n(C3CCOCC3)c(=O)n2C)cc1 [Example 56, 8-[4-[2-(Dimethylamino)ethoxy]phenyl]-7-fluoro-3-methyl-1-tetrahydropyran-4-yl-imidazo[4,5-c]quinolin-2-one]	53.1	9850	29200

Continued, values first:

IC50 (ATM kinase) [nM]	IC50 (ATR kinase) [nM]	IC50 (mTOR) [nM]	SMILES
0.089	21000	879	CO[C@H]1CC[C@@H](n2c(=O)n(C)c3cnc4ccc(-c5ccc(OCCCN(C)C)cc5)cc4c32)CC1 [Example 25, 8-[4-[3-(dimethylamino)propoxy]phenyl]-1-(cis-4-methoxycyclohexyl)-3-methyl-imidazo[4,5-c]quinolin-2-one]
3.95	20000	8650	CN(C)CCCOc1ccc(-c2cc3c(cc2F)ncc2c3n(C3CCOCC3)c(=O)n2C)cc1 [Example 45, 8-[4-[3-(Dimethylamino)propoxy]phenyl]-7-fluoro-3-methyl-1-tetrahydropyran-4-yl-imidazo[4,5-c]quinolin-2-one]
36.1	> 30000	≥ 30000	CO[C@H]1C[C@@H](n2c(=O)n(C)c3cnc4ccc(-c5ccc(OCCN6CCCC6)cc5)cc4c32)C1 [Example 49, 1-(3-(cis)methoxycyclobutyl)-3-methyl-8-[4-(2-pyrrolidin-1-ylethoxy)phenyl]imidazo[4,5-c]quinolin-2-one]
13.4	> 25500	≥ 30000	Cn1c(=O)n([C@@H]2CCCOC2)c2c3cc(-c4ccc(OCCN5CCCC5)cc4)ccc3ncc21 [Example 50, 3-methyl-8-[4-(2-pyrrolidin-1-ylethoxy)phenyl]-1-[(3R)-tetrahydropyran-3-yl]imidazo[4,5-c]quinolin-2-one]
10.2	> 30000	1760	Cn1c(=O)n([C@H]2CCCOC2)c2c3cc(-c4ccc(OCCN5CCCC5)cc4)ccc3ncc21 [Example 51, 3-methyl-8-[4-(2-pyrrolidin-1-ylethoxy)phenyl]-1-[(3S)-tetrahydropyran-3-yl]imidazo[4,5-c]quinolin-2-one]
9.38	> 30000	10000	CN(C)CCOc1ccc(-c2ccc3ncc4c(c3c2)n(C2CCC2)c(=O)n4C)cc1 [Example 53, 1-cyclobutyl-8-[4-[2-(dimethylamino)ethoxy]phenyl]-3-methyl-imidazo[4,5-c]quinolin-2-one]
